Patent publication US20140378409A1, “EFFECT POTENTIATOR FOR ANTITUMOR AGENTS” (TAIHO PHARMACEUTICAL CO., LTD., priority 2011, published 2014)
Structures can show the parent of a compound that is named as a salt.

Legend:
[1] = system: human lung cancer cell line NCI-H441; assay: Antitumor effect potentiating activity for gemcitabine hydrochloride, NCI-H441 subcutaneously transplanted model (nude mice); assay type: in vivo, human; nude mice
Experimental: (§1) As an index of the antitumor effect, the TV on Day 15 was measured for each medicament treated group, and the relative tumor volume (RTV) for Day 1 and T/C (%) were calculated by the following formulas to evaluate the antitumor effect.
(§2) TV (mm^3)=(Major axis×minor axis^2)/2
(§3) RTV=(TV on Day 15)/(TV on Day 1)
(§4) T/C (%)=(Mean RTV value of test solution administered group)/(mean RTV value of control group)×100
A human lung cancer cell line (NCI-H441) was transplanted into the right chest of a 5- to 6-week old male BALB/cA Jcl-nu mouse, and the mouse was used in the same manner as described in Test Example 1.
The test solution for a gemcitabine hydrochloride (GEMZAR, manufactured by Eli Lilly and Co.) single administration group was prepared such that the administered dose would be 240 mg/kg/day. Furthermore, the test solution of the compound (1) was prepared such that the administered dose would be 200 mg/kg/day.
The compound (1) was orally administered every day for 14 consecutive days from Day 1, and gemcitabine hydrochloride was administered on Day 1 and Day 8 through the mouse tail vein. Ina combined administration group, 200 mg/kg/day of the compound (1) and 240 mg/kg/day of gemcitabine hydrochloride were administered, and the effects were evaluated in the same manner as described in Test Example 1.

[2] = system: human colorectal cancer cell line HT-29; assay: Antitumor effect potentiating activity for irinotecan hydrochloride, HT-29 subcutaneously transplanted model (nude mice); assay type: in vivo, human; nude mice; settings: HT-29, nude mice, Day 15
Experimental: as §1, §2, §3, §4
(§5) Furthermore, as an index of toxicity, the body weight [BW] was measured over time, and the mean body weight change [BWC (%)] up to Day 15 with respect to Day 1 was calculated by the following formula (n: day of body weight measurement carried out at a rate of two times/week, and the final day of measurement corresponds to Day 15, which is the final evaluation day).
(§6) BWC (%)=[(BW on Day n)−(BW on Day 1)]/(BW on Day 1)×100

[3] = system: human gastric cancer cell line NCI-N87; assay: Antitumor effect potentiating activity for lapatinib, NCI-N87 subcutaneously transplanted model (nude mice); assay type: in vivo, human; nude mice; settings: 14 days
Experimental: as §1, §2, §3, §4
A human gastric cancer cell line (NCI-N87) was transplanted into the right chest of a 5- to 6-week old male BALB/cA Jcl-nu mouse, and the mouse was used in the same manner as described in Test Example 1. The test solution for a lapatinib (manufactured by LC Laboratories, Inc.) single administration group was prepared such that the amount of administration would be 100 mg/kg/day. Furthermore, the test solution of the compound (1) was prepared such that the amount of administration would be 200 mg/kg/day of the compound (1).
The compound (1) and lapatinib were orally administered every day for 14 consecutive days from Day 1. In a combined administration group, 200 mg/kg/day of the compound (1) and 100 mg/kg/day of lapatinib were administered, and the effects were evaluated in the same manner as described in Test Example 1.

[4] = system: human gastric cancer cell line NUGC-4; assay: Antitumor effect potentiating activity for paclitaxel, NUGC-4 subcutaneously transplanted model (nude mice); assay type: in vivo, human; nude mice; settings: NUGC-4, nude mice, Day 15
Experimental: as §1, §2, §3, §4, §5, §6
A human gastric cancer cell line (NUGC-4) was transplanted into the right chest of a 5- to 6-week old male BALB/cA Jcl-nu mouse, and the mouse was used in the same manner as described in Test Example 1.
The test solution for a paclitaxel (TAXOL injection, manufactured by Bristol Myers K.K.) single administration group was prepared such that the amount of administration of paclitaxel would be 60 mg/kg/day.
The test solution of the compound (1) was prepared such that the amount of administration would be 12.5 mg/kg/day of the compound (1). In a combined administration group, 12.5 mg/kg/day of the compound (1) and 60 mg/kg/day of paclitaxel were administered. The compound (1) was orally administered every day for 14 consecutive days from Day 1, paclitaxel was administered on Day 1 through the mouse tail vein, and evaluation was made in the same manner as described in Test Example 1.
Furthermore, the body weight changes over time, which is an indicator of toxicity, were also evaluated in the same manner as described in Test Example 1.

[5] = system: human lung cancer cell line NCI-H460; assay: Antitumor effect potentiating activity for paclitaxel, NCI-H460 subcutaneously transplanted model (nude mice); assay type: in vivo, human; nude mice
Experimental: A human lung cancer cell line (NCI-H460) was transplanted into the right chest of a 5- to 6-week old male BALB/cA Jcl-nu mouse. After the tumor transplantation, the major axis (mm) and the minor axis (mm) of the tumor were measured to calculate the tumor volume (TV), and then mice were allocated to each treatment group such that the average TV's of each group would be uniform. The day on which this grouping (n=5) was performed was designated as Day 1.
The test solution for a paclitaxel (TAXOL injection, Bristol Myers K.K.) single administration group was prepared such that the administered dose of paclitaxel would be 60 mg/kg/day. Furthermore, the test solution for a compound (1) single administration group was prepared such that the administered dose would be 200 mg/kg/day. The compound (1) was orally administered every day for 14 consecutive days from Day 1, and paclitaxel was administered on Day 1 through the mouse tail vein. In a combined administration group, 200 mg/kg/day of the compound (1) and 60 mg/kg/day of paclitaxel were administered.
as §1, §2, §3, §4, §5, §6

[6] = system: human gastric cancer cell line NUGC-4; assay: Antitumor effect potentiating activity for TS-1, NUGC-4 subcutaneously transplanted model (nude rats); assay type: in vivo, human; nude rats; settings: NUGC-4, nude rats, Day 15, 14 days
Experimental: as §1, §2, §3, §4
A human gastric cancer cell line (NUGC-4) was transplanted into the right chest of a 5- to 6-week old male nude rat, and the rat was used in the same manner as described in Test Example 1. The test solution for a TS-1 (TS-1, manufactured by Taiho Pharmaceutical Co., Ltd.) single administration group was prepared such that the amount of administration of tegafur would be 18 mg/kg/day. Furthermore, the test solution of the compound (1) was prepared such that the amount of administration would be 250 mg/kg/day and 50 mg/kg/day.
The compound (1) and TS-1 were orally administered every day for 14 consecutive days from Day 1. In a combined administration group, 250 mg/kg/day and 50 mg/kg/day of the compound (1) and 18 mg/kg/day of TS-1 were administered, and the effects were evaluated in the same manner as described in Test Example 1.

[7] = Day 15, 240 mg/kg/day, tail vein Day 1 and Day 8
[8] = Day 15, lapatinib 100 mg/kg/day oral
[9] = paclitaxel 60 mg/kg/day, tail vein Day 1
[10] = Day 15, paclitaxel 60 mg/kg/day, tail vein Day 1
[11] = Day 15, 200 mg/kg/day oral, 14 consecutive days

Nc1ccn([C@@H]2O[C@H](CO)[C@@H](O)C2(F)F)c(=O)n1 [Gemcitabine hydrochloride, gemcitabine hydrochloride, reference compound]
RTV (mean ± standard deviation) [1, 7]: 1.10 ± 0.13
T/C (%) [1, 7]: 16%

CCc1c2c(nc3ccc(OC(=O)N4CCC(N5CCCCC5)CC4)cc13)-c1cc3c(c(=O)n1C2)COC(=O)[C@]3(O)CC [Irinotecan hydrochloride, irinotecan hydrochloride, reference compound]
RTV (mean ± standard deviation) ([2]; 50 mg/kg/day, tail vein Day 1, Day 5, Day 9): 2.47 ± 0.40

CS(=O)(=O)CCNCc1ccc(-c2ccc3ncnc(Nc4ccc(OCc5cccc(F)c5)c(Cl)c4)c3c2)o1 [Lapatinib, lapatinib, reference compound]
RTV (mean ± standard deviation) [3, 8]: 1.56 ± 0.18
T/C (%) [3, 8]: 62%

CC(=O)O[C@H]1C(=O)[C@@]2(C)[C@H]([C@H](OC(=O)c3ccccc3)[C@]3(O)C[C@H](OC(=O)[C@H](O)[C@@H](NC(=O)c4ccccc4)c4ccccc4)C(C)=C1C3(C)C)[C@]1(OC(C)=O)CO[C@@H]1C[C@@H]2O [Paclitaxel, paclitaxel, reference compound]
RTV (mean ± standard deviation) [4, 9]: 5.77 ± 0.96
T/C (%) [4, 9]: 83%
RTV (mean ± standard deviation) [5, 10]: 3.67 ± 0.42
T/C (%) [5, 10]: 41%

CNC(=O)c1cc2c(Oc3ccc(NC(=S)NC(=O)Cc4ccccc4)cc3F)ccnc2cc1OC [compound (1), 4-(2-Fluoro-4-(3-(2-phenylacetyl)thioureido)phenoxy)-7-methoxy-N-methylquinoline-6-carboxamide]
RTV (mean ± standard deviation) ([6]; 50 mg/kg/day oral): 2.36 ± 0.44
T/C (%) ([6]; 50 mg/kg/day oral): 14%
RTV (mean ± standard deviation) ([6]; 250 mg/kg/day oral): 1.60 ± 0.33
T/C (%) ([6]; 250 mg/kg/day oral): 10%
RTV (mean ± standard deviation) [1, 11]: 1.26 ± 0.15
T/C (%) [1, 11]: 18%
RTV (mean ± standard deviation) ([3]; Day 15, 200 mg/kg/day oral): 1.31 ± 0.23
T/C (%) ([3]; Day 15, 200 mg/kg/day oral): 52%
RTV (mean ± standard deviation) ([4]; 12.5 mg/kg/day oral, 14 days): 6.63 ± 1.91
T/C (%) ([4]; 12.5 mg/kg/day oral, 14 days): 95%
RTV (mean ± standard deviation) [5, 11]: 3.02 ± 0.63
T/C (%) [5, 11]: 34%
RTV (mean ± standard deviation) ([2]; 50 mg/kg/day oral, 14 days): 1.83 ± 0.29
T/C (%) ([2]; 50 mg/kg/day oral, 14 days): 44%
